This is an account of results in US9028856B2, “Synergistic pesticide compositions” (priority 2008, dated 2015).

For series [1], the system named is susceptible/normal German cockroach (Monheim strain), Blattella germanica. Nature of the series: Knockdown/mortality of male cockroaches under continuous exposure on treated glazed tile. The format is in vivo. The procedure, abridged: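 Male cockroaches continuously exposed on treated glazed tile, dried overnight before exposure; at least three replicates. Knockdown/mortality scored at intervals from 5 or 10 min, over runs lasting 20 min to 24 h depending on test.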

The format of series [2] is physicochemical. The settings on record: classified from Log P.
In series [3] the test system is tropical house mosquito Culex quinquefasciatus (adults, 3 days old). Nature of the series: Efficacy of formulations on surfaces (glazed/unglazed tiles, plywood), ten 3 day old mosquitoes, 3 min exposure. Format: in vivo. Particulars: EC formulation, 3 minutes exposure. Put shortly: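 Test agents in acetone, 1 ml pipetted onto 15×15 cm glazed tiles (plywood/unglazed tiles also used; 1 cm edge untreated). USDA Petri Dish Method: ten 3-day-old adults held 3 min under a perforated dish, then given a water-soaked cotton pad. Knock-down scored 3 min–4 h, mortality at 24 h; mean of three batches.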

Series [4] relates to Musca domestica, susceptible strain WHO(N). Briefly: Efficacy of formulations on surfaces (glazed/unglazed tiles), house flies, continuous exposure. Format: in vivo. Particulars: for % KD and Mortality 15′ / % KD and Mortality 30′ / % KD and Mortality 1 h / % KD and Mortality 2 h / % KD and Mortality 3 h / % KD and Mortality 4 h / % KD and Mortality 6 h / % KD and Mortality 24 h: Table 114, EC formulation, continuous exposure. The method, then:
A flat fan nozzle (type SS 8003-E) in a spray cabin was moved automatically over a defined area where the solutions were sprayed very evenly onto the surfaces. The formulation was mixed with water to give a concentration which corresponded to the desired quantity of a.i./m^2. A defined quantity of this solution was sprayed onto the area (nominal 350 liter/ha=0.77 ml per surface).
All surfaces were provided with talcum-coated glass rings (diameter 9.5 cm, height 5.5 cm) one day later.
The test insects were anesthetized with CO2, 20 individuals were placed onto the treated surfaces and the glass ring was covered with wire gauze ring.
Knock down was determined after 15 and 30′, 1, 2, 4 and 6 hours, mortality after 1 day exposure.
Each test consisted of at least one replicate and any additional replicates are noted.
Test Insects: House flies (Musca domestica) of both sexes, susceptible strain WHO(N) and resistant strain Reichswald
Evaluation: Mortality was evaluated cumulatively at different times. […]
Test Insects: Culex quinquefasciatus (adults) (3 minutes exposure time according to USDA Petri Dish Method), Musca domestica (adults), susceptible and resistant strain, Blattella germanica (males), Cimex lectularius (adults) (all: continuous exposure time)
Application: The EC formulation (diluted with water 1:9) were applied as 0.85 ml solutions onto glazed tiles (15 cm×15 cm)
Evaluation: Knock down after 15, and 30 minutes, 1, 2, 3, 4, 6 and 24 hours (mortality)
Test Insects: Culex quinquefasciatus (adults, susceptible) (3 minutes exposure time according to USDA Petri Dish Method), Musca domestica (adults, susceptible and resistant), Blattella germanica (males, susceptible) (both: continuous exposure time)
Formulations: Insecticide with or without 10% Compound A (as EC), to be diluted with water (1 part formulation+9 parts water)
Evaluation: Knock down after 3, 9 (mosquitoes only), 15, and 30 minutes, 1, 2, 3, 4 and 24 hours (mortality) […]

Setting [5] is: Table 61, German cockroach (Monheim), glazed tile, continuous exposure.
[6] abbreviates: Table 53, fipronil/adjuvant in acetone, glazed tile, Monheim strain.
Where [7] appears, read: 0.1% = 50 mg Bendiocarb/m^2 on glazed tiles.
[8] abbreviates: 0.001% deltamethrin in acetone on glazed tiles, with or without adjuvant.
Where [9] appears, read: 0.02% = 10 mg Ethiprole/m^2 on glazed tiles.
The mark [10] stands for this setting: 0.1% = 50 mg imidacloprid/m^2 on glazed tiles.

For `CC[S+]([O-])c1c(C#N)nn(-c2c(Cl)cc(C(F)(F)F)cc2Cl)c1N` (stereo not drawn) [Ethiprole (1%)], in series [1] (setting [5]), the “Average % Knockdown & Mortality after 3 hr” value turned out to be 13%, the “Average % Knockdown & Mortality after 5 hr” value is reported as 27% and the “Average % Knockdown & Mortality after 24 hr” value came out at 73%. In addition, the “Average % Knockdown & Mortality after 1 hr” value in series [1] (Table 61, German cockroach (Monheim), glazed tile, continuous exposure, adjuvant = Compound A 1% + Compound B 0.5%, 1 hr) is 0%.

In the case of `N#Cc1nn(-c2c(Cl)cc(C(F)(F)F)cc2Cl)c(N)c1[S+]([O-])C(F)(F)F` (stereo not drawn) [Fipronil (.001%)], in series [1] (setting [6]), the “Average % Knockdown & Mortality after 60 min” value was 0%, the “Average % Knockdown & Mortality after 3 hr” value is 0%, the “Average % Knockdown & Mortality after 5 hr” value was found to be 0% and the “Average % Knockdown & Mortality after 24 hr” value is on record as 40%.

With `N#Cc1nn(-c2c(Cl)cc(C(F)(F)F)cc2Cl)c(N)c1[S+]([O-])C(F)(F)F` (stereo not drawn) [Fipronil (.01%)], in series [1] (setting [6]), the “Average % Knockdown & Mortality after 60 min” value turned out to be 0%, the “Average % Knockdown & Mortality after 3 hr” value amounted to 7%, the “Average % Knockdown & Mortality after 5 hr” value worked out at 7% and the “Average % Knockdown & Mortality after 24 hr” value was 100%.

`CNC(=O)Oc1cccc2c1OC(C)(C)O2` [bendiocarb]: the “Likelihood of Direct Insect Cuticular Penetration” value (from here on “Likelihood”) in series [2] was “Slow (classified as “SLOW” when the compound has a Log P value of about <2.0)”. Besides, in series [3] (setting [7]), the “% KD and Mortality 15′” value came to 0%; the “% KD and Mortality 30′” value amounted to 0%; the “% KD and Mortality 1 h” value was found to be 80%; the “% KD and Mortality 2 h” value is on record as 100%. For the same molecule, in series [3] (setting [7]), the “% KD and Mortality 3 h” value was 100%; the “% KD and Mortality 4 h” value was determined as 100%; the “% KD and Mortality 6 h” value worked out at 100%; the “% KD and Mortality 24 h” value is on record as 100%. Also, in series [4] (setting [7]), the “% KD and Mortality 15′” value is on record as 25%; the “% KD and Mortality 30′” value is recorded as 65%; the “% KD and Mortality 1 h” value is given as 85%; the “% KD and Mortality 2 h” value stood at 85%. Moreover, in series [4] (setting [7]), the “% KD and Mortality 3 h” value is 85%; the “% KD and Mortality 4 h” value is given as 85%; the “% KD and Mortality 6 h” value is 85%; the “% KD and Mortality 24 h” value was found to be 95%.

With `CC1(C)[C@H](C(=O)O[C@H](C#N)c2cccc(Oc3ccccc3)c2)[C@@H]1C=C(Br)Br` [deltamethrin (1%)], in series [1] (4 min, Table 32, aqueous deltamethrin/adjuvant, glazed tile, Monheim strain), the “Average % Mortality after 4 min” value is listed as 27%. Besides, the “Average % Mortality after 8 min” value in series [1] (8 min, Table 32, aqueous deltamethrin/adjuvant, glazed tile, Monheim strain) is reported as 100%. In series [1] (12 min, Table 32, aqueous deltamethrin/adjuvant, glazed tile, Monheim strain), the “Average % Mortality after 12 min” value was determined as 100%. Further, the “Average % Mortality after 20 min” value in series [1] (20 min, Table 32, aqueous deltamethrin/adjuvant, glazed tile, Monheim strain) was 100%.

For the molecule `CC1(C)[C@H](C(=O)O[C@H](C#N)c2cccc(Oc3ccccc3)c2)[C@@H]1C=C(Br)Br` [deltamethrin], the “Likelihood” value in series [2] is “Fast (classified as “FAST” when it has a Log P value of about >4.0)”. Also, the “% of the flies killed after 15′” value in series [4] (0.001% deltamethrin in acetone on glazed tiles, with or without 1% Compound A + 0.5% Compound B) is 2%. Besides, in series [4] (setting [8]), the “% of the flies killed after 30′” value is 18%, the “% of the flies killed after 1 h” value stood at 58%, the “% of the flies killed after 2 h” value is listed as 80% and the “% of the flies killed after 3 h” value was 88%. In addition, the “% of the flies killed after 24 h” value in series [4] (setting [8]) is on record as 92%.

Consider `CC[S+]([O-])c1c(C#N)nn(-c2c(Cl)cc(C(F)(F)F)cc2Cl)c1N` (stereo not drawn) [ethiprole], for which the “Likelihood” value in series [2] is given as “Fast (classified as “FAST” when it has a Log P value of about >4.0)”. The “mortality from 5 to 25 hours” value in series [1] (ethiprole 0.01% in the absence of the adjuvant (FIG. 55)) is recorded as 5-15%. In series [3] (setting [9]), the “% KD and Mortality 15′” value is recorded as 0%; the “% KD and Mortality 30′” value is 0%; the “% KD and Mortality 1 h” value was found to be 0%; the “% KD and Mortality 2 h” value was 10%. For the same molecule, in series [3] (setting [9]), the “% KD and Mortality 3 h” value is listed as 10%; the “% KD and Mortality 4 h” value is 10%; the “% KD and Mortality 6 h” value is 10%; the “% KD and Mortality 24 h” value is on record as 60%. Further, in series [4] (setting [9]), the “% KD and Mortality 15′” value was 0%; the “% KD and Mortality 30′” value was determined as 0%; the “% KD and Mortality 1 h” value is reported as 0%; the “% KD and Mortality 2 h” value was 5%. Moreover, in series [4] (setting [9]), the “% KD and Mortality 3 h” value was found to be 15%; the “% KD and Mortality 4 h” value is 15%; the “% KD and Mortality 6 h” value is 25%; the “% KD and Mortality 24 h” value is given as 95%.

Take `O=[N+]([O-])NC1=NCCN1Cc1ccc(Cl)nc1` [imidacloprid]: the “Likelihood” value in series [2] is “Slow (classified as “SLOW” when the compound has a Log P value of about <2.0)”. Besides, in series [3] (setting [10]), the “% KD and Mortality 15′” value amounted to 0%; the “% KD and Mortality 30′” value stood at 0%; the “% KD and Mortality 1 h” value is listed as 0%; the “% KD and Mortality 2 h” value is given as 10%. Further, in series [3] (setting [10]), the “% KD and Mortality 3 h” value came to 20%; the “% KD and Mortality 4 h” value worked out at 20%; the “% KD and Mortality 6 h” value is given as 20%; the “% KD and Mortality 24 h” value was determined as 100%. In series [4] (setting [10]), the “% KD and Mortality 15′” value stood at 25%; the “% KD and Mortality 30′” value came out at 55%; the “% KD and Mortality 1 h” value worked out at 40%; the “% KD and Mortality 2 h” value turned out to be 95%. Also, in series [4] (setting [10]), the “% KD and Mortality 3 h” value was 95%; the “% KD and Mortality 4 h” value turned out to be 95%; the “% KD and Mortality 6 h” value was found to be 95%; the “% KD and Mortality 24 h” value was found to be 100%.
